Experimental data taken from US20110230472A1, “RING-FUSED AZOLE DERIVATIVE HAVING PI3K-INHIBITING ACTIVITY” (Shionogi & Co., Ltd., priority 2008, published 2011).

What was measured:
[1] = target: T1, PI-3 kinase γ (Homo sapiens, UniProt P48736); experiment: PI3Kγ inhibitory activity, PI3-kinase HTRF assay (inhibition ratio); assay type: biochemical; details: 0.5 h; PI3Kγ, compound at 10 μM
Summary of the method: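 Single-concentration inhibition ratio (50 or 10 μmol/L compound) versus no-compound (100%) and no-enzyme (0%) wells. Reaction: PI-3 kinase γ, PIP2, ATP, MgCl2/DTT, 30 min at RT after 10 min preincubation. Read-out: HTRF 665/620 nm after 18 h detection.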

[2] = system: AKT phosphorylation in human monocyte-like cell line THP-1; experiment: AKT phosphorylation inhibitory activity in MCP-1-stimulated THP-1 cells (ELISA); assay type: cell-based; details: 1 μmol/L solution of each compound, MCP-1 stimulation, read-out: AKT phosphorylation inhibition ratio
Protocol: (1) The AKT phosphorylation inhibitory activity of a compound was evaluated according to the following procedure. (2) Human monocyte-like cell line THP-1 was washed with RPMI-1640 media, incubated in the presence of 5% CO2 at 37° C. for 3 hours, washed with Hank's balanced salt solution (HBSS), adjusted to a cell concentration of 6.6×10^6/mL, and then used in an experiment. (3) 30 μL of the cell suspension and 60 μL of each compound solution containing 0.2% DMSO/HBSS were mixed and then preincubated at 37° C. for 5 minutes. 30 μL of HBSS containing 4 μg/mL of MCP-1 was added thereto and then incubated for 30 seconds at 37° C. (4) 30 μl of a cell lysate (20 mmol/L Tris-HCl (pH 7.5), 150 mmol/L NaCl, 1 mmol/L Na2EDTA, 1 mmol/L EGTA, 1% Triton, 2.5 mmol/L sodium pyrophosphate, 1 mmol/L β-glycerophosphate, 1 mmol/L Na3VO4, 1 μg/ml leupeptin, 50 nmol/L APMSF) was added thereto to lyse cells. (5) The amount of AKT phosphorylation in the cell lysate was measured by ELISA method. (6) Anti-phospho-Akt (Ser473) antibodies (clone 193H12, derived from a rabbit) were immobilized onto the solid phase of a micro well plate. 100 μL of the prepared cell lysate was added to the micro well plate, incubated for 2 hours at 37° C., and then washed four times with Phosphate Buffered Saline containing 0.05% Tween-20. (7) An anti-AKT1 antibody (clone 2H10, derived from a mouse) was added thereto, incubated for 1 hour at 37° C., washed similarly, and then reacted with an HRP-labeled anti-mouse IgG antibody. (8) After incubating at 37° C. for 30 minutes and then washing similarly, 100 μL of TMB (3,3′,5,5″-tetramethylbenzidine) was added thereto, followed by reacting at room temperature for 30 minutes. (9) 100 μL of 1 mol/L sulfuric acid was added to quench the color reaction and then the absorbance at 450 nm was measured. (10) A series of diluted cell lysates of a positive control (a sample in the absence of a compound) were used to prepare a calibration curve, the amount of AKT phosphorylation in a sample in the absence of MCP-1 was defined as 0% activity to calculate an inhibition ratio. The measurement was performed for a 1 μmol/L solution of each compound.

[3] = target: T1, PI-3 kinase γ; experiment: PI3Kγ inhibitory activity (Ki value), HTRF; assay type: biochemical; details: Ki=IC50/(1+10 μM ATP/Km)
Protocol: The PI3Kγ inhibitory activity (Ki value) of a compound was evaluated according to the following procedure:
5 μL of a compound solution containing 10% DMSO and 200 μmol/L of a compound was changed to 5 μL of a compound solution containing 10% DMSO and either 200, 64, 20, 6.4, 2, 0.64, or 0.20 μmol/L of the compound (optionally, this is diluted to a lower concentration). Using a method similar to the method for measuring PI3Kγ inhibitory activity, inhibition ratios were measured in the presence of the compound at 50, 16, 5, 1.6, 0.5, 0.16, and 0.05 μmol/L (optionally, a lower concentration). Then an IC50 value was calculated by a logistic approximation method or the linear regression method using two concentrations that across 50% inhibition. Separately, the ATP concentration in the reaction solution (40 μmol/L ATP, 10 mmol/L MgCl2, 5 mmol/L DTT) at the time of the start of a reaction in the absence of the compound was changed to 80, 40, 20, 10, 5, 2.5, 1.25, or 0.625 μmol/L. Then, HTRF ratios were measured by a similar method. The value obtained by subtracting the HTRF ratio at each ATP concentration from the HTRF ratio in the absence of PI-3 kinase γ was defined as the value obtained by multiplying reaction rate (v) at each ATP concentration with a constant. The Michaelis-Menten constant Km was then calculated by the Lineweaver-Burk plot method. The Ki value of a compound was calculated by the following formula.
Ki=IC50 value/(1+10 μM (test ATP concentration)/Km (μM))

[4] = system: Salmonella typhimurium TA98 line, TA100 line; experiment: FAT test (mutagenicity); parameters: key: When the mutagenicity is negative, the compound is shown as (−); When positive, the compound is shown as (+); details: TA98 and TA100 lines; non-metabolism-activation and metabolism-activation conditions
Protocol: 20 μL of Salmonella enterica subsp. typhimurium (Salmonella typhimurium TA98 line, TA100 line) cryopreserved was inoculated to 10 mL of liquid nutrient medium (2.5% Oxoid nutrient broth No. 2) and then precultured at 37° C. for 10 hours with shaking. Regarding TA98 line, after 9 mL of a bacterial suspension was centrifuged (2000×g, 10 minutes) to remove the culture solution, the bacteria was suspended in 9 mL of Micro F buffer solution (K2HPO4: 3.5 g/L, KH2PO4: 1 g/L, (NH4)2SO4: 1 g/L, tri-sodium citric acid dihydrate: 0.25 g/L, MgSO4.7H2O: 0.1 g/L), and then added to 110 mL of Exposure media (Micro F buffer solution containing biotin: 8 μg/mL, histidine: 0.2 μg/mL, glucose: 8 mg/mL). Regarding TA 100 line, 120 mL of Exposure media was added to 3.16 mL of the bacterial suspension to prepare a test bacterial suspension. 12 μL of a solution of a test substance in DMSO (diluted eight times in a common ratio of 2 from the maximum dose of 50 mg/mL); 12 μL of DMSO as a negative control; 50 μg/mL 4-nitroquinoline-1-oxide solution in DMSO for TA98 line or 0.25 μg/mL 2-(2-furyl)-3-(5-nitro-2-furyl)acrylamide solution in DMSO as a positive control for TA 100 line in the case of a non-metabolism-activation condition; 12 μL of 40 μg/mL 2-aminoanthracene solution in DMSO for TA98 line or 20 μg/mL of 2-aminoanthracene solution in DMSO for TA100 line in the case of a metabolism-activation condition; were each mixed with 588 μL of the test bacterial suspension (in the case of a metabolism activation condition, a mixed solution of 498 μL of the test bacterial suspension and 90 μL S9 mix) and then cultured at 37° C. at 90 minutes with shaking. 460 μL of the bacterial suspension to which a test substance was exposed was mixed with 230 μL of Indicator media (a Micro F buffer solution containing 8 μg/mL biotin, 0.2 μg/mL histidine, 8 mg/mL glucose, and 37.5 μg/mL bromocresol purple). 50 μL thereof was dispensed to microplate 48 wells/dose and then statically cultured at 37° C. for 3 days. In a well containing bacteria which obtained proliferation potency by mutation of the amino acid (histidine) synthetase gene, the change of pH caused the color change from purple to yellow. Thus, in 48 wells per dose, the number of the bacteria-proliferation wells in which the color changed to yellow was counted, compared with a group of negative controls, and then evaluated. When the mutagenicity is negative, the compound is shown as (−). When positive, the compound is shown as (+).

T1 sequence (P48736 whole entry): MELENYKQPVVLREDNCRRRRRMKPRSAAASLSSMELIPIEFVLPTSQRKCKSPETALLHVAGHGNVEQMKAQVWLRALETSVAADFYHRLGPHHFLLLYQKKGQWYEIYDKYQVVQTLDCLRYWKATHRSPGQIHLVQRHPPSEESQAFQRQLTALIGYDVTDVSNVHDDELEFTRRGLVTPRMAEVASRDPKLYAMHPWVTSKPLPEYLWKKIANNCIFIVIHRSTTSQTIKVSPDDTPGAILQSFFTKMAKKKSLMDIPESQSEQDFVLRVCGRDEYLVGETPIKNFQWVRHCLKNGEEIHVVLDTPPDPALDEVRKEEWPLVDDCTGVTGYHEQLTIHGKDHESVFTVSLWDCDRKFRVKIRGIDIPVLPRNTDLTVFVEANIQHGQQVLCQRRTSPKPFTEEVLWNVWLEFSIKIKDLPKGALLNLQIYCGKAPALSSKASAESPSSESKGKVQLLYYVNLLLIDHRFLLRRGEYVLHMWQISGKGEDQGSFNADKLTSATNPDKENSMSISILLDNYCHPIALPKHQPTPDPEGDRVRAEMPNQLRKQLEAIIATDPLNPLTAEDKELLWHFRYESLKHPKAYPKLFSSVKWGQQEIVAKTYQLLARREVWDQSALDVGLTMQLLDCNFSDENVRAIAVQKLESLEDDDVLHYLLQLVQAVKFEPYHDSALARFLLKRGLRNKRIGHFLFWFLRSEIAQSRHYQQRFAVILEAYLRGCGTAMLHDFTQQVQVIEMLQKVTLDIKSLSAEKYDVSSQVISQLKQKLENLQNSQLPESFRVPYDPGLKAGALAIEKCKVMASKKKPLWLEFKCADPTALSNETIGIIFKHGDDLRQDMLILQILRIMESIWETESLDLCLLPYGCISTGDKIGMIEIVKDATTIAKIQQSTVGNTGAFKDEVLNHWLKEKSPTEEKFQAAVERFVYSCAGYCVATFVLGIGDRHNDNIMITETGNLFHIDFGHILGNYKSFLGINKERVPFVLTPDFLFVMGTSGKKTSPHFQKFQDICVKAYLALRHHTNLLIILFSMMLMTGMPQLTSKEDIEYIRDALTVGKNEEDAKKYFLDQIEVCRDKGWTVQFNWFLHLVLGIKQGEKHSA

COc1cc(N2CCc3nc(NC(=O)NCCC(=O)N4CCCCC4)sc3C2)nc(OC)n1 [Compound I-266]
inhibition at 10 µM [1]: ≥ 95% | inhibition [2]: > 99.5% | Ki [3]: 36 nM | mutagenicity (FAT test) [4]: (−)
